Consider 11 compounds from patent US20230279001A1, “IMIDAZO[1,2-A]PYRIDINE COMPOUNDS FOR THE TREATMENT OF AUTOIMMUNE DISEASE” (Hoffmann-La Roche Inc., priority 2020, published 2023).

The target in data set [1] is human TLR8 (Homo sapiens (Human), UniProt Q9NR97). Nature of the data set: HEK293-Blue-hTLR-8 cells assay. It is filed as cell-based. The settings on record: HEK293-Blue-hTLR8 cells, R848 stimulation, 20 hrs, SEAP reporter; read-out: HEK/hTLR8 IC50. The source says: (§1) A stable HEK293-Blue-hTLR-8 cell line was purchased from InvivoGen (Cat. #: hkb-htlr8, San Diego, Calif., USA). These cells were originally designed for studying the stimulation of human TLR8 by monitoring the activation of NF-κB. A SEAP (secreted embryonic alkaline phosphatase) reporter gene was placed under the control of the IFN-β minimal promoter fused to five NF-κB and AP-1-binding sites. The SEAP was induced by activating NF-κB and AP-1 via stimulating HEK-Blue hTLR8 cells with TLR8 ligands. Therefore the reporter expression was declined by TLR8 antagonist under the stimulation of a ligand, such as R848, for incubation of 20 hrs. The cell culture supernatant SEAP reporter activity was determined using QUANTI-Blue™ kit (Cat. #: rep-gb1, Invivogen, San Diego, Ca, USA) at a wavelength of 640 nm, a detection medium that turns purple or blue in the presence of alkaline phosphatase.
human TLR8, sequence (Q9NR97 27-1041): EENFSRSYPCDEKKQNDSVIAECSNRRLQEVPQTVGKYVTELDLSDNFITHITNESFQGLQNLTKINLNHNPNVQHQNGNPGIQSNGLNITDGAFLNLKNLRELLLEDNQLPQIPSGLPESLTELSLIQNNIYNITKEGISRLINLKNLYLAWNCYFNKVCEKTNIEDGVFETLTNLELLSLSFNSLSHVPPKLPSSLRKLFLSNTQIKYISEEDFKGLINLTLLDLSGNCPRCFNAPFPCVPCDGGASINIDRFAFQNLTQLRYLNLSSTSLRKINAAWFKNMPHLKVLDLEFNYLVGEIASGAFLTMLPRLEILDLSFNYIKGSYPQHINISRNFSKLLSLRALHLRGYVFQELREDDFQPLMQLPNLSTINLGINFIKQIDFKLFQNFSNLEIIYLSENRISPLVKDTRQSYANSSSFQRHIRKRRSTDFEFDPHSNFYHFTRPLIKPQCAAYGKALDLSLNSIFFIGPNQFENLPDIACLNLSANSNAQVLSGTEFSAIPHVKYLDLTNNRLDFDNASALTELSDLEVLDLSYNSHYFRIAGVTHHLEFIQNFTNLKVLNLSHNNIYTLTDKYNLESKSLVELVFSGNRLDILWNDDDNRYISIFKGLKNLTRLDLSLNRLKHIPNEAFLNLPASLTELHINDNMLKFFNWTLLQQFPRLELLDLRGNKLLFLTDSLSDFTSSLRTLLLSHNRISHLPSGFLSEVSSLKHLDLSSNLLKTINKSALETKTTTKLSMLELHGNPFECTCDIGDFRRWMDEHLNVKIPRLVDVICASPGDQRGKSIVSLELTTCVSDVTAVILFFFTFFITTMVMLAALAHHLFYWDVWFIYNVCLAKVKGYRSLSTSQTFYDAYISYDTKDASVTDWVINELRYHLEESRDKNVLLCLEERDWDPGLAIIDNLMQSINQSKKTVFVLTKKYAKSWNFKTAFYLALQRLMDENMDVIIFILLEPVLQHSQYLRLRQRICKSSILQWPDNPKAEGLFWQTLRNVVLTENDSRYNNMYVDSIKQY
(§2) HEK293-Blue-hTLR8 cells were incubated at a density of 250,000˜450,000 cells/mL in a volume of 170 μL in a 96-well plate in Dulbecco's Modified Eagle's medium (DMEM) containing 4.5 g/L glucose, 50 U/mL penicillin, […], […], 2 mM L-glutamine, 10% (v/v) heat-inactivated fetal bovine serum with addition of 20 μL test compound in a serial dilution in the presence of final DMSO at 1% and 10 μL of 60 uM R848 in above DMEM, perform incubation under 37° C. in a CO2 incubator for 20 hrs. Then 20 μL of the supernatant from each well was incubated with 180 μL Quanti-blue substrate solution at 37° C. for 2 hrs and the absorbance was read at 620655 nm using a spectrophotometer. The signaling pathway that TLR8 activation leads to downstream NF-κB activation has been widely accepted, and therefore similar reporter assay was modified for evaluating TLR8 antagonist.

The target of data set [2] is TLR9 (Homo sapiens (Human), UniProt Q9NR96). The data set can be described thus: HEK293-Blue-hTLR-9 cells assay. The format is cell-based. Particulars: HEK293-Blue-hTLR9 cells, ODN2006 stimulation, 20 hrs, SEAP reporter; read-out: HEK/hTLR9 IC50. The source says: A stable HEK293-Blue-hTLR-9 cell line was purchased from InvivoGen (Cat. #: hkb-htlr9, San Diego, Calif., USA). These cells were originally designed for studying the stimulation of human TLR9 by monitoring the activation of NF-κB. A SEAP (secreted embryonic alkaline phosphatase) reporter gene was placed under the control of the IFN-β minimal promoter fused to five NF-κB and AP-1-binding sites. The SEAP was induced by activating NF-κB and AP-1 via stimulating HEK-Blue hTLR9 cells with TLR9 ligands. Therefore the reporter expression was declined by TLR9 antagonist under the stimulation of a ligand, such as ODN2006 (Cat. #: tlr1-2006-1, Invivogen, San Diego, Calif., USA), for incubation of 20 hrs. The cell culture supernatant SEAP reporter activity was determined using QUANTI-Blue™ kit (Cat. #: rep-qb1, Invivogen, San Diego, Calif., USA) at a wavelength of 640 nm, a detection medium that turns purple or blue in the presence of alkaline phosphatase.
TLR9, sequence (Q9NR96 26-1032): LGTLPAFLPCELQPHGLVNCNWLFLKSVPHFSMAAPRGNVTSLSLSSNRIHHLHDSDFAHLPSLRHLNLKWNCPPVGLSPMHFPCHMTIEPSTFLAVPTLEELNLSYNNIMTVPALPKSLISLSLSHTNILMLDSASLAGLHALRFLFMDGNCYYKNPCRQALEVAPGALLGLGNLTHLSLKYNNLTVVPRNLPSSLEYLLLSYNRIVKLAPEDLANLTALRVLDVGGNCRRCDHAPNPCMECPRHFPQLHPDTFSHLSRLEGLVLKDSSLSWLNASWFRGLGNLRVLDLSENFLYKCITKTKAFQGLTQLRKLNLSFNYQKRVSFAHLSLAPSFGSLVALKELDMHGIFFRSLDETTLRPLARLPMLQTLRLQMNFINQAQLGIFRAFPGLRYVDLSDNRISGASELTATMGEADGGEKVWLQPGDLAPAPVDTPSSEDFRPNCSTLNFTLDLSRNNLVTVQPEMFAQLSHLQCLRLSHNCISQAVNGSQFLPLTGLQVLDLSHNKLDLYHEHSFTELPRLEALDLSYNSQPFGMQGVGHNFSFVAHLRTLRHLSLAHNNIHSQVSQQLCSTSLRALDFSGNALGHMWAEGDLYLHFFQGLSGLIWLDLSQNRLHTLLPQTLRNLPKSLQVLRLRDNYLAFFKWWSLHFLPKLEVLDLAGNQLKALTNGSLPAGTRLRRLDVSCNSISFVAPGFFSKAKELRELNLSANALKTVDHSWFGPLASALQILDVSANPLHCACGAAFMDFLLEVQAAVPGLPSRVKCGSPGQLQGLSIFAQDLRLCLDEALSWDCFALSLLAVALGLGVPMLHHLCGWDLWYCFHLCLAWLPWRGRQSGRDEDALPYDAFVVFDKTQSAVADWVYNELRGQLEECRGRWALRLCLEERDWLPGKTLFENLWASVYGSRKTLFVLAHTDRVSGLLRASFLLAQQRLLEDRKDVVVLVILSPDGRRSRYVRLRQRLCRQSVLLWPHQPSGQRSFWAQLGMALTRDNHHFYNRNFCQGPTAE
HEK293-Blue-hTLR9 cells were incubated at a density of 250,000˜450,000 cells/mL in a volume of 170 μL in a 96-well plate in Dulbecco's Modified Eagle's medium (DMEM) containing 4.5 g/L glucose, 50 U/mL penicillin, […], 2 mM L-glutamine, 10% (v/v) heat-inactivated fetal bovine serum with addition of 20 μL test compound in a serial dilution in the presence of final DMSO at 1% and 10 μL, of 20 uM ODN2006 in above DMEM, perform incubation under 37° C. in a CO2 incubator for 20 hrs. Then 20 μL of the supernatant from each well was incubated with 180 μL, Quanti-blue substrate solution at 37° C. for 2 h and the absorbance was read at 620655 nm using a spectrophotometer. The signaling pathway that TLR9 activation leads to downstream NF-κB activation has been widely accepted, and therefore similar reporter assay was modified for evaluating TLR9 antagonist.

In data set [3] the target is human TLR7 (Homo sapiens (Human), UniProt Q9NYK1). The data set can be described thus: HEK293-Blue-hTLR-7 cells assay. The format is cell-based. Particulars: HEK293-Blue-hTLR7 cells, R848 stimulation, 20 hrs, SEAP reporter; read-out: HEK/hTLR7 IC50.
human TLR7, sequence (Q9NYK1 27-1049): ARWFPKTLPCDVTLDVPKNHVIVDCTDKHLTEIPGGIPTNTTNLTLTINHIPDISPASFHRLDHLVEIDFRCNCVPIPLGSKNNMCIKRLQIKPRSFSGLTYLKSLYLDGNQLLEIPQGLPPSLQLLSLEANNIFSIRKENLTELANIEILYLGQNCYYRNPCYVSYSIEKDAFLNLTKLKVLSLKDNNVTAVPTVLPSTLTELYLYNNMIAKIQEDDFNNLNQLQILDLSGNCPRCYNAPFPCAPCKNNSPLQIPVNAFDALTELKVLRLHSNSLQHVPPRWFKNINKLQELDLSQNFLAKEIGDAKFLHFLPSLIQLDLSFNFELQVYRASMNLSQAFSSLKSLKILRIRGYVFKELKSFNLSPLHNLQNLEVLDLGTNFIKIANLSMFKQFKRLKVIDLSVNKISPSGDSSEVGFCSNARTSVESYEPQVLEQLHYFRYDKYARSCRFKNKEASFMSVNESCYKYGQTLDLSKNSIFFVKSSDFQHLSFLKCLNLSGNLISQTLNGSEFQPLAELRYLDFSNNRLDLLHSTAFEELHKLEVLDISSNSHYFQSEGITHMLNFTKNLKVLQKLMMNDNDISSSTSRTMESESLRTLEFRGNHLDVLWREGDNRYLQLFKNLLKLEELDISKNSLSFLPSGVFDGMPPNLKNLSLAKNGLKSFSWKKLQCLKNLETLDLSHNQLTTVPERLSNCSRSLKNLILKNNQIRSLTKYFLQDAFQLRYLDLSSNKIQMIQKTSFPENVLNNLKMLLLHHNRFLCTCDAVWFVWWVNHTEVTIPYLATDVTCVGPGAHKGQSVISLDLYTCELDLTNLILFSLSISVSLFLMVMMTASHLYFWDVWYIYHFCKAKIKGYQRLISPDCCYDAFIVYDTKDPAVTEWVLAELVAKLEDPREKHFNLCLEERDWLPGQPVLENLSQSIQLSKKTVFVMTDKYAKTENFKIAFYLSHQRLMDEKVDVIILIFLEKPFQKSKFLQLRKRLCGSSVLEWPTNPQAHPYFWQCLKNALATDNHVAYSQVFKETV
Description: as §1, with “HEK293-Blue-hTLR-7” for “HEK293-Blue-hTLR-8”, “hkb-htlr7,” for “hkb-htlr8,”, “TLR7” for “TLR8”, “hTLR7” for “hTLR8”, “R848 (Resiquimod),” for “R848,”, “rep-qb1,” for “rep-gb1,”
as §2, with “HEK293-Blue-hTLR7” for “HEK293-Blue-hTLR8”, “20” for “60”, “620-655” for “620655”, “TLR7” for “TLR8”

A short description of data set [4]: Human microsome stability assay. It is filed as in vitro ADME. The settings on record: human liver microsomes, 1 μM test compound, 37° C., NADPH regenerating system. The method, then: The human microsomal stability assay is used for early assessment of metabolic stability of a test compound in human liver microsomes.
Human liver microsomes (Cat. NO.: 452117, Corning, USA; Cat. NO.: H2610, Xenotech, USA) were preincubated with test compound for 10 minutes at 37° C. in 100 mM potassium phosphate buffer, pH 7.4. The reactions were initiated by adding NADPH regenerating system. The final incubation mixtures contained 1 μM test compound, 0.5 mg/mL liver microsomal protein, 1 mM MgCl2, 1 mM NADP, 1 unit/mL isocitric dehydrogenase and 6 mM isocitric acid in 100 mM potassium phosphate buffer, pH 7.4. After incubation times of 0, 3, 6, 9, 15 and 30 minutes at 37° C., 300 μL of cold acetonitrile (including internal standard) was added to 100 μL incubation mixture to terminate the reaction. Following precipitation and centrifugation, the amount of compound remaining in the samples were determined by LC-MS/MS. Controls of no NADPH regenerating system at zero and 30 minutes were also prepared and analyzed.
On the technique in general: Liver microsomes are a subcellular fraction often used to study metabolism.

With `CCc1nc(N2CCC(N3CC4(CNCCO4)C3)CC2)ccc1-c1cc(C)c2nc(C)cn2c1` [Example 16, 2-[1-[5-(2,8-dimethylimidazo[1,2-a]pyridin-6-yl)-6-ethyl-2-pyridyl]-4-piperidyl]-5-oxa-2,8-diazaspiro[3.5]nonane], the figures for the IC50 in data set [1], in data set [2] and in data set [3] were 15.7 nM, 111 nM and 6.2 nM, respectively. Besides, the “Clearance of Human microsome” value in data set [4] is 9.54 mL/min/kg.

Regarding `COc1cc(-c2ccc(N3CCC4(CCNCC4)CC3)nc2C(F)F)cn2ccnc12` [Example 13, 3-[6-(difluoromethyl)-5-(8-methoxyimidazo[1,2-a]pyridin-6-yl)-2-pyridyl]-3,9-diazaspiro[5.5]undecane], the IC50 in data set [1] was 28.4 nM; in data set [2], 293 nM; in data set [3], 7.4 nM. Besides, in data set [4], the “Clearance of Human microsome” value was found to be 9.16 mL/min/kg.

As to `Cc1cc(-c2ccc(N3CCC(N)CC3)nc2C(C)C)cn2ccnc12` [Example 1, 1-[6-isopropyl-5-(8-methylimidazo[1,2-a]pyridin-6-yl)-2-pyridyl]piperidin-4-amine], the IC50 in data set [1] stood at 1.3 nM; in data set [2] it was 292 nM; in data set [3] it was 1.4 nM. The “Clearance of Human microsome” value in data set [4] is listed as 9.06 mL/min/kg.

Regarding `CO[C@@H]1CN(C2CCN(c3ccc(-c4cc(C)c5nccn5c4)c(N(C)C)n3)CC2)C[C@H]1N` [Example 24, 6-[4-[(3R,4R)-3-amino-4-methoxy-pyrrolidin-1-yl]-1-piperidyl]-N,N-dimethyl-3-(8-methylimidazo[1,2-a]pyridin-6-yl)pyridin-2-amine], the IC50 is 4 nM in data set [1], 107 nM in data set [2] and 20.1 nM in data set [3].

`CCc1nc(N2CCC(N3C[C@@H](N)[C@H](OC)C3)CC2)ncc1-c1cc(C)c2nccn2c1` [Example 26, (3R,4R)-1-[1-[4-ethyl-5-(8-methylimidazo[1,2-a]pyridin-6-yl)pyrimidin-2-yl]-4-piperidyl]-4-methoxy-pyrrolidin-3-amine]: the IC50 came to 1 nM in data set [1], 229 nM in data set [2] and 7.4 nM in data set [3]. In addition, the “Clearance of Human microsome” value in data set [4] was 8.69 mL/min/kg.

Regarding `CCc1nc(N2CCN(C(=O)C3CNCCO3)CC2)ccc1-c1cc(C)c2nc(C)cn2c1` (centres unmarked) [Example 18, [4-[5-(2,8-dimethylimidazo[1,2-a]pyridin-6-yl)-6-ethyl-2-pyridyl]piperazin-1-yl]-morpholin-2-yl-methanone], the values for the IC50 in data set [1], in data set [2] and in data set [3] were 28.8 nM, 255 nM and 22.4 nM, respectively.

With `CCc1nc(N2CCC(N3CCNCC3)CC2)ncc1-c1cc(C)c2nccn2c1` [Example 27, 6-[4-ethyl-2-(4-piperazin-1-yl-1-piperidyl)pyrimidin-5-yl]-8-methyl-imidazo[1,2-a]pyridine], the IC50 in data set [1] is 4.6 nM; in data set [2], 259 nM; in data set [3] it was 3.3 nM. Besides, the “Clearance of Human microsome” value in data set [4] came out at 7.75 mL/min/kg.

As for `CCc1nc(N2CCN(c3ncc4c(n3)CNCC4)CC2)ccc1-c1cc(C)c2nc(C)cn2c1` [Example 19, 2-[4-[5-(2,8-dimethylimidazo[1,2-a]pyridin-6-yl)-6-ethyl-2-pyridyl]piperazin-1-yl]-5,6,7,8-tetrahydropyrido[3,4-d]pyrimidine], the IC50 turned out to be 1.3 nM in data set [1], 131 nM in data set [2] and 43.5 nM in data set [3].

For the compound `CCc1nc(N2CCC(N3CC4(CNCCO4)C3)CC2)ncc1-c1cc(C)c2nccn2c1` [Example 28, 2-[1-[4-ethyl-5-(8-methylimidazo[1,2-a]pyridin-6-yl)pyrimidin-2-yl]-4-piperidyl]-5-oxa-2,8-diazaspiro[3.5]nonane], the values for the IC50 in data set [1], in data set [2] and in data set [3] were 1.3 nM, 159 nM and 15.3 nM, respectively.

On to `Cc1cc(-c2ccc(N3CCC(N4CCNCC4)CC3)nc2N(C)C)cn2ccnc12` [Example 23, N,N-dimethyl-3-(8-methylimidazo[1,2-a]pyridin-6-yl)-6-(4-piperazin-1-yl-1-piperidyl)pyridin-2-amine], for which the results for the IC50 in data set [1], in data set [2] and in data set [3] were 8.1 nM, 118 nM and 6.4 nM, respectively.

With `Cc1cn2cc(-c3ccc(N4CCC5(CC4)COCCN5)nc3C(C)C)cc(C)c2n1` [Example 6, 9-[5-(2,8-dimethylimidazo[1,2-a]pyridin-6-yl)-6-isopropyl-2-pyridyl]-4-oxa-1,9-diazaspiro[5.5]undecane], the values for the IC50 in data set [1], in data set [2] and in data set [3] were 27 nM, 269 nM and 13.6 nM, respectively.
